# Measurements reported in PubChem BioAssay AID2060509 (Molecular Pharmacology Branch, DTP, NCI, 2025).
# System: 485176-168-R4-J1-PDC spheroids with HUVEC/MSC, viability
# Assay: Anticancer human tumor 485176-168-R4-J1-PDC patient-derived pancreatic adenocarcinoma cell line growth inhibition [GQUAD]
# Conditions: for IC50: curve of first compound; for viability, T/C: stronger effect = lower value
# Summary of the method: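 Multi-cell-type spheroids of tumor cells with HUVEC and mesenchymal stem cells, treated with drug combinations. Concentrations descend in half-log steps from near clinical Cmax, or from 10 microM where Cmax is unknown; viability read-out.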
# [1] = second compound 0.0316 µM, first compound 0.0316 µM
# [2] = second compound 0.0316 µM, first compound 0.316 µM
# [3] = second compound 0.1 µM, first compound 0.0316 µM
# [4] = second compound 0.1 µM, first compound 0.316 µM
# [5] = second compound 0.316 µM, first compound 0.0316 µM
# [6] = second compound 0.316 µM, first compound 0.316 µM
# [7] = second compound 1 µM, first compound 0.0316 µM
# [8] = second compound 1 µM, first compound 0.316 µM
# [9] = second compound 3.16 µM, first compound 0.0316 µM
# [10] = second compound 3.16 µM, first compound 0.316 µM
# [11] = second compound 10 µM, first compound 0.0316 µM
# [12] = second compound 10 µM, first compound 0.316 µM
# [13] = second compound 0.0316 µM, first compound 0.1 µM
# [14] = second compound 0.0316 µM, first compound 1 µM
# [15] = second compound 0.0316 µM, first compound 3.16 µM
# [16] = second compound 0.0316 µM, first compound 10 µM
# [17] = second compound 0.1 µM, first compound 0.1 µM
# [18] = second compound 0.1 µM, first compound 1 µM
# [19] = second compound 0.1 µM, first compound 3.16 µM
# [20] = second compound 0.1 µM, first compound 10 µM
# [21] = second compound 0.316 µM, first compound 0.1 µM
# [22] = second compound 0.316 µM, first compound 1 µM
# [23] = second compound 0.316 µM, first compound 3.16 µM
# [24] = second compound 0.316 µM, first compound 10 µM
# [25] = second compound 1 µM, first compound 0.1 µM
# [26] = second compound 1 µM, first compound 1 µM
# [27] = second compound 1 µM, first compound 3.16 µM
# [28] = second compound 1 µM, first compound 10 µM
# [29] = second compound 3.16 µM, first compound 0.1 µM
# [30] = second compound 3.16 µM, first compound 1 µM
# [31] = second compound 3.16 µM, first compound 3.16 µM
# [32] = second compound 3.16 µM, first compound 10 µM
# [33] = second compound 10 µM, first compound 0.1 µM
# [34] = second compound 10 µM, first compound 1 µM
# [35] = second compound 10 µM, first compound 3.16 µM
# [36] = second compound 10 µM, first compound 10 µM
# 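Note: spheroids exposed to compounds for seven days before readout.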
# 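Throughout, for viability, T/C: percent viability relative to DMSO vehicle control wells as 100%.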
smiles,measurement,setting,value
Cc1[nH]c2ccccc2c1CCNCc1ccc(/C=C/C(=O)NO)cc1 + Cc1cnc(CNC(=O)c2c(=O)c3ccc(N4CCCN(C)CC4)nc3n3c2sc2ccccc23)cn1,IC50,second compound 0.0316 µM,94 nM
same,IC50,second compound 0.1 µM,39.2 nM
same,IC50,second compound 0.316 µM,11 nM
same,IC50,second compound 1 µM,< 0.999 nM
same,IC50,second compound 3.16 µM,< 0.999 nM
same,IC50,second compound 10 µM,< 0.999 nM
same,"viability, T/C","second compound 0.0316 µM, first compound 0.000999 µM",99.4%
same,"viability, T/C","second compound 0.0316 µM, first compound 0.00316 µM",74.4%
same,"viability, T/C","second compound 0.0316 µM, first compound 0.00999 µM",85.6%
same,"viability, T/C",[1],60.5%
same,"viability, T/C","second compound 0.0316 µM, first compound 0.0999 µM",57.5%
same,"viability, T/C",[2],12.1%
same,"viability, T/C","second compound 0.1 µM, first compound 0.000999 µM",74.5%
same,"viability, T/C","second compound 0.1 µM, first compound 0.00316 µM",89.6%
same,"viability, T/C","second compound 0.1 µM, first compound 0.00999 µM",49.4%
same,"viability, T/C",[3],51.7%
same,"viability, T/C","second compound 0.1 µM, first compound 0.0999 µM",44.3%
same,"viability, T/C",[4],9.46%
same,"viability, T/C","second compound 0.316 µM, first compound 0.000999 µM",63.3%
same,"viability, T/C","second compound 0.316 µM, first compound 0.00316 µM",59.6%
same,"viability, T/C","second compound 0.316 µM, first compound 0.00999 µM",53.5%
same,"viability, T/C",[5],35.3%
same,"viability, T/C","second compound 0.316 µM, first compound 0.0999 µM",27.2%
same,"viability, T/C",[6],6.34%
same,"viability, T/C","second compound 1 µM, first compound 0.000999 µM",44.6%
same,"viability, T/C","second compound 1 µM, first compound 0.00316 µM",52.6%
same,"viability, T/C","second compound 1 µM, first compound 0.00999 µM",45.4%
same,"viability, T/C",[7],30.7%
same,"viability, T/C","second compound 1 µM, first compound 0.0999 µM",23.8%
same,"viability, T/C",[8],0.94%
same,"viability, T/C","second compound 3.16 µM, first compound 0.000999 µM",47.2%
same,"viability, T/C","second compound 3.16 µM, first compound 0.00316 µM",39.2%
same,"viability, T/C","second compound 3.16 µM, first compound 0.00999 µM",45%
same,"viability, T/C",[9],33.1%
same,"viability, T/C","second compound 3.16 µM, first compound 0.0999 µM",14%
same,"viability, T/C",[10],0.27%
same,"viability, T/C","second compound 10 µM, first compound 0.000999 µM",36.2%
same,"viability, T/C","second compound 10 µM, first compound 0.00316 µM",37.5%
same,"viability, T/C","second compound 10 µM, first compound 0.00999 µM",32.5%
same,"viability, T/C",[11],26.5%
same,"viability, T/C","second compound 10 µM, first compound 0.0999 µM",11.1%
same,"viability, T/C",[12],0.69%
CC1COCCN1c1cc(C2(O)CC3CCC(C2)O3)c2cnn(-c3ccn[nH]3)c2n1 (stereo unspecified) + CN(C)c1ccc(Nc2c3ccc(NC(=O)CCN4CCCC4)cc3nc3cc(NC(=O)CCN4CCCC4)ccc23)cc1,IC50,second compound 0.0316 µM,101 nM
same,IC50,second compound 0.1 µM,120 nM
same,IC50,second compound 0.316 µM,98.5 nM
same,IC50,second compound 1 µM,91 nM
same,IC50,second compound 3.16 µM,125 nM
same,IC50,second compound 10 µM,99.6 nM
same,"viability, T/C",[1],79.4%
same,"viability, T/C",[13],49.7%
same,"viability, T/C",[2],25.9%
same,"viability, T/C",[14],9.43%
same,"viability, T/C",[15],12%
same,"viability, T/C",[16],7.83%
same,"viability, T/C",[3],66%
same,"viability, T/C",[17],56.1%
same,"viability, T/C",[4],16.4%
same,"viability, T/C",[18],9.58%
same,"viability, T/C",[19],11.2%
same,"viability, T/C",[20],8.08%
same,"viability, T/C",[5],70.3%
same,"viability, T/C",[21],49.6%
same,"viability, T/C",[6],23%
same,"viability, T/C",[22],10.9%
same,"viability, T/C",[23],9.72%
same,"viability, T/C",[24],8.92%
same,"viability, T/C",[7],80.3%
same,"viability, T/C",[25],47.1%
same,"viability, T/C",[8],21.6%
same,"viability, T/C",[26],9.7%
same,"viability, T/C",[27],10.3%
same,"viability, T/C",[28],8.64%
same,"viability, T/C",[9],72.2%
same,"viability, T/C",[29],54.2%
same,"viability, T/C",[10],30%
same,"viability, T/C",[30],10.4%
same,"viability, T/C",[31],11.8%
same,"viability, T/C",[32],7.71%
same,"viability, T/C",[11],67.1%
same,"viability, T/C",[33],50.2%
same,"viability, T/C",[12],21.1%
same,"viability, T/C",[34],11.6%
same,"viability, T/C",[35],9.48%
same,"viability, T/C",[36],6.52%
COc1cc(C2c3cc4c(cc3C(OC3OC5COC(C)OC5C(O)C3O)C3COC(=O)C23)OCO4)cc(OC)c1O (stereo unspecified) + Cc1[nH]c2ccc(F)cc2c1-c1nc2c3cccnc3c3ncccc3c2[nH]1,IC50,second compound 0.0316 µM,317 nM
same,IC50,second compound 0.1 µM,266 nM
same,IC50,second compound 0.316 µM,650 nM
same,IC50,second compound 1 µM,403 nM
same,IC50,second compound 3.16 µM,344 nM
same,IC50,second compound 10 µM,344 nM
same,"viability, T/C",[1],89.3%
same,"viability, T/C",[13],63%
same,"viability, T/C",[2],43.9%
same,"viability, T/C",[14],43%
same,"viability, T/C",[15],29.5%
same,"viability, T/C",[16],12.7%
same,"viability, T/C",[3],92.3%
same,"viability, T/C",[17],68.7%
same,"viability, T/C",[4],37.5%
same,"viability, T/C",[18],42.1%
same,"viability, T/C",[19],24%
same,"viability, T/C",[20],12.5%
same,"viability, T/C",[5],86.1%
same,"viability, T/C",[21],97.7%
same,"viability, T/C",[6],52.9%
same,"viability, T/C",[22],44.4%
same,"viability, T/C",[23],29.4%
same,"viability, T/C",[24],13%
same,"viability, T/C",[7],89.6%
same,"viability, T/C",[25],67.7%
same,"viability, T/C",[8],47.4%
same,"viability, T/C",[26],44.5%
same,"viability, T/C",[27],24.9%
same,"viability, T/C",[28],15.1%
same,"viability, T/C",[9],77.3%
same,"viability, T/C",[29],65.7%
same,"viability, T/C",[10],43.6%
same,"viability, T/C",[30],42.8%
same,"viability, T/C",[31],28.7%
same,"viability, T/C",[32],13%
same,"viability, T/C",[11],96.2%
same,"viability, T/C",[33],69.9%
same,"viability, T/C",[12],44%
same,"viability, T/C",[34],44.8%
same,"viability, T/C",[35],24.9%
same,"viability, T/C",[36],13.2%
